Results taken from PubChem BioAssay (NCI).
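Compound exposure: 48 hours, 5 concentrations, 96-well plates. At the GI50, growth is halved. TGI is the concentration that stops growth completely.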

Columns and labels:
Experiment in all cases: NCI-60 cell line screen, 48 h
IGROV1 ovarian = test system: IGROV1 ovarian
SN12C renal = test system: SN12C renal
MOLT-4 leukemia = test system: MOLT-4 leukemia
SK-OV-3 ovarian = test system: SK-OV-3 ovarian
UACC-62 melanoma = test system: UACC-62 melanoma
MCF7 breast = test system: MCF7 breast
M14 melanoma = test system: M14 melanoma
NCI-H23 lung = test system: NCI-H23 lung
SK-MEL-2 melanoma = test system: SK-MEL-2 melanoma
CCRF-CEM leukemia = test system: CCRF-CEM leukemia
HOP-92 NSCLC = test system: HOP-92 NSCLC
COLO 205 colon = test system: COLO 205 colon
KM12 colon = test system: KM12 colon
LOX IMVI melanoma = test system: LOX IMVI melanoma
TK-10 renal = test system: TK-10 renal
RXF 393 renal = test system: RXF 393 renal
SR leukemia = test system: SR leukemia
NCI-H522 lung = test system: NCI-H522 lung
HS 578T breast = test system: HS 578T breast
DU-145 prostate = test system: DU-145 prostate
U251 CNS = test system: U251 CNS
NCI-H460 lung = test system: NCI-H460 lung
BT-549 breast = test system: BT-549 breast
UACC-257 melanoma = test system: UACC-257 melanoma
A549 NSCLC = test system: A549 NSCLC
OVCAR-8 ovarian = test system: OVCAR-8 ovarian
A498 renal = test system: A498 renal
MDA-MB-231 breast = test system: MDA-MB-231 breast
PC-3 prostate = test system: PC-3 prostate
RPMI-8226 leukemia = test system: RPMI-8226 leukemia
OVCAR-5 ovarian = test system: OVCAR-5 ovarian
786-0 renal = test system: 786-0 renal
UO-31 renal = test system: UO-31 renal
SF-268 CNS = test system: SF-268 CNS
NCI-H226 lung = test system: NCI-H226 lung
ACHN renal = test system: ACHN renal
SF-539 CNS = test system: SF-539 CNS
HL-60(TB) leukemia = test system: HL-60(TB) leukemia
HCT-116 colon = test system: HCT-116 colon
MALME-3M melanoma = test system: MALME-3M melanoma
HCT-15 colon = test system: HCT-15 colon
SNB-75 CNS = test system: SNB-75 CNS
SF-295 CNS = test system: SF-295 CNS
OVCAR-4 ovarian = test system: OVCAR-4 ovarian
HT29 colon = test system: HT29 colon
SK-MEL-28 melanoma = test system: SK-MEL-28 melanoma
K-562 leukemia = test system: K-562 leukemia
EKVX NSCLC = test system: EKVX NSCLC
OVCAR-3 ovarian = test system: OVCAR-3 ovarian
SNB-19 CNS = test system: SNB-19 CNS
MDA-MB-435 = test system: MDA-MB-435
T-47D breast = test system: T-47D breast
NCI/ADR-RES ovarian = test system: NCI/ADR-RES ovarian
CAKI-1 renal = test system: CAKI-1 renal
SW-620 colon = test system: SW-620 colon
HOP-62 NSCLC = test system: HOP-62 NSCLC
SK-MEL-5 melanoma = test system: SK-MEL-5 melanoma
HCC-2998 colon = test system: HCC-2998 colon

CN(C)c1ccc(N=Nc2ccc(Br)cn2)c(O)c1
GI50 (IGROV1 ovarian): 359 nM
TGI (IGROV1 ovarian): > 100000 nM
GI50 (SN12C renal): 704 nM
TGI (SN12C renal): > 100000 nM
GI50 (MOLT-4 leukemia): 294 nM
TGI (MOLT-4 leukemia): > 46700 nM
GI50 (SK-OV-3 ovarian): 774 nM
TGI (SK-OV-3 ovarian): > 100000 nM
GI50 (UACC-62 melanoma): 737 nM
TGI (UACC-62 melanoma): 8350 nM
GI50 (MCF7 breast): 385 nM
TGI (MCF7 breast): > 100000 nM
GI50 (M14 melanoma): 691 nM
TGI (M14 melanoma): > 21300 nM
GI50 (NCI-H23 lung): 1130 nM
TGI (NCI-H23 lung): > 100000 nM
GI50 (SK-MEL-2 melanoma): 5280 nM
TGI (SK-MEL-2 melanoma): > 100000 nM
GI50 (CCRF-CEM leukemia): 227 nM
GI50 (HOP-92 NSCLC): 1310 nM
TGI (HOP-92 NSCLC): > 100000 nM
GI50 (COLO 205 colon): 373 nM
TGI (COLO 205 colon): > 32800 nM
GI50 (KM12 colon): 854 nM
TGI (KM12 colon): > 100000 nM
GI50 (LOX IMVI melanoma): 294 nM
GI50 (TK-10 renal): 681 nM
TGI (TK-10 renal): > 100000 nM
GI50 (RXF 393 renal): 620 nM
TGI (RXF 393 renal): 7060 nM
GI50 (SR leukemia): 149 nM
TGI (SR leukemia): > 34000 nM
GI50 (NCI-H522 lung): 983 nM
TGI (NCI-H522 lung): > 28600 nM
GI50 (HS 578T breast): 5780 nM
TGI (HS 578T breast): > 100000 nM
GI50 (DU-145 prostate): 653 nM
TGI (DU-145 prostate): > 100000 nM
GI50 (U251 CNS): 373 nM
TGI (U251 CNS): > 100000 nM
GI50 (NCI-H460 lung): 281 nM
TGI (NCI-H460 lung): > 34700 nM
GI50 (BT-549 breast): 737 nM
TGI (BT-549 breast): > 100000 nM
GI50 (UACC-257 melanoma): 2270 nM
TGI (UACC-257 melanoma): 7840 nM
GI50 (A549 NSCLC): 682 nM
TGI (A549 NSCLC): > 100000 nM
GI50 (OVCAR-8 ovarian): 549 nM
TGI (OVCAR-8 ovarian): > 100000 nM
GI50 (A498 renal): 3210 nM
TGI (A498 renal): 66700 nM
GI50 (MDA-MB-231 breast): 551 nM
TGI (MDA-MB-231 breast): > 100000 nM
GI50 (PC-3 prostate): 556 nM
TGI (PC-3 prostate): > 100000 nM
GI50 (RPMI-8226 leukemia): 528 nM
TGI (RPMI-8226 leukemia): > 100000 nM
GI50 (OVCAR-5 ovarian): 1420 nM
TGI (OVCAR-5 ovarian): > 100000 nM
GI50 (786-0 renal): 266 nM
TGI (786-0 renal): > 100000 nM
GI50 (UO-31 renal): 160 nM
TGI (UO-31 renal): > 100000 nM
GI50 (SF-268 CNS): 404 nM
TGI (SF-268 CNS): > 100000 nM
GI50 (NCI-H226 lung): 1080 nM
TGI (NCI-H226 lung): 7680 nM
GI50 (ACHN renal): 361 nM
TGI (ACHN renal): > 100000 nM
GI50 (SF-539 CNS): 673 nM
TGI (SF-539 CNS): 8800 nM
GI50 (HL-60(TB) leukemia): 260 nM
TGI (HL-60(TB) leukemia): 2440 nM
GI50 (HCT-116 colon): 325 nM
TGI (HCT-116 colon): > 40000 nM
GI50 (MALME-3M melanoma): 2650 nM
TGI (MALME-3M melanoma): > 100000 nM
GI50 (HCT-15 colon): 171 nM
TGI (HCT-15 colon): > 100000 nM
GI50 (SNB-75 CNS): 1550 nM
TGI (SNB-75 CNS): > 82600 nM
GI50 (SF-295 CNS): 635 nM
TGI (SF-295 CNS): > 100000 nM
GI50 (OVCAR-4 ovarian): 186 nM
TGI (OVCAR-4 ovarian): 4890 nM
GI50 (HT29 colon): 603 nM
TGI (HT29 colon): > 100000 nM
GI50 (SK-MEL-28 melanoma): 2050 nM
TGI (SK-MEL-28 melanoma): > 100000 nM
GI50 (K-562 leukemia): 471 nM
TGI (K-562 leukemia): > 100000 nM
GI50 (EKVX NSCLC): 382 nM
TGI (EKVX NSCLC): > 100000 nM
GI50 (OVCAR-3 ovarian): 320 nM
TGI (OVCAR-3 ovarian): > 31000 nM
GI50 (SNB-19 CNS): 641 nM
TGI (SNB-19 CNS): > 100000 nM
GI50 (MDA-MB-435): 1930 nM
TGI (MDA-MB-435): > 100000 nM
GI50 (T-47D breast): 568 nM
TGI (T-47D breast): > 100000 nM
GI50 (NCI/ADR-RES ovarian): 362 nM
TGI (NCI/ADR-RES ovarian): 12500 nM
GI50 (CAKI-1 renal): 790 nM
TGI (CAKI-1 renal): > 100000 nM
GI50 (SW-620 colon): 565 nM
TGI (SW-620 colon): > 100000 nM
GI50 (HOP-62 NSCLC): 389 nM
TGI (HOP-62 NSCLC): > 73600 nM
GI50 (SK-MEL-5 melanoma): 774 nM
TGI (SK-MEL-5 melanoma): 4350 nM
GI50 (HCC-2998 colon): 476 nM
TGI (HCC-2998 colon): > 100000 nM
